Experimental data taken from US9617256B2 (priority 2007, dated 2017).
Converted amounts (≈) assume the structure as drawn.

Tests used:
[1] = test system: AECO001 HSA AGP; experiment: MIC broth microdilution, AECO001 HSA AGP; assay type: cell-based, E. coli; conditions: for MIC: Escherichia coli
Method in brief: (§1)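 Inocula prepared from 0.5 McFarland suspensions (final 3×10^5–7×10^5 CFU/mL) were added to 2-fold drug dilution series in cation-adjusted Mueller-Hinton broth. Plates stood 18-24 hours at 35° C. under ambient air.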

[2] = test system: APAE001 (ATCC27853); experiment: MIC broth microdilution, APAE001; assay type: cell-based, P. aeruginosa; conditions: for MIC: Pseudomonas aeruginosa, ATCC27853, read-out: MIC APAE001, APAE001 is ATCC27853
Method in brief: as §1

[3] = test system: ASAU001 (laboratory strain of S. aureus, ATCC29213); experiment: MIC broth microdilution, ASAU001; assay type: cell-based; conditions: for MIC: Staphylococcus aureus, ATCC29213, read-out: MIC ASAU001
Method in brief: as §1

[4] = test system: AECO001 (ATCC25922); experiment: MIC broth microdilution, AECO001; assay type: cell-based, E. coli; conditions: for MIC: Escherichia coli, ATCC25922, read-out: MIC AECO001
Method in brief: as §1

[5] = test system: AABA1060 (clinical isolate of Acinetobacter baumannii); experiment: MIC broth microdilution, AABA1060; assay type: cell-based; conditions: for MIC: Acinetobacter baumannii, read-out: MIC AABA1060
Method in brief: as §1

[6] = test system: APAE006 (strain of P. aeruginosa in which all efflux pumps are inactivated); experiment: microbe, parasite or virus in culture; assay type: cell-based; conditions: for MIC: Pseudomonas aeruginosa, read-out: MIC APAE006, P. aeruginosa, all efflux pumps inactivated
Method in brief: (§2)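 Two-fold drug dilutions in cation-adjusted MHB were inoculated to 3×10^5–7×10^5 CFU/mL and held at 35° C. for 18-24 hours (ambient air), following CLSI. APAE006 is an efflux-deficient P. aeruginosa.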

[7] = test system: AECO063 (ATCC25922 bearing an acrAB mutation); experiment: microbe, parasite or virus in culture; assay type: cell-based, E. coli; conditions: for MIC: Escherichia coli, ATCC25922, read-out: MIC AECO063
Method in brief: as §1

[8] = test system: APAE006 in the presence of 8 micrograms per milliliter of polymyxin B nonapeptide; assay type: cell-based, P. aeruginosa; conditions: in the presence of 8 micrograms per milliliter of polymyxin B nonapeptide
Method in brief: as §2

Row | Molecule | MIC [1] | MIC [2] | MIC [3] | MIC [4] | MIC [5] | MIC [6] | MIC [7] | MIC APAE006 + PMBN [8] | MIC AECO001 HSA AGP [1] | MIC APAE001 ([2]; APAE001 is ATCC27853) | MIC ASAU001 ([3]; S. aureus ATCC29213) | MIC AECO001 ([4]; AECO001 is ATCC25922) | MIC AABA1060 ([5]; clinical isolate of Acinetobacter baumannii) | MIC APAE006 ([6]; P. aeruginosa, all efflux pumps inactivated) | MIC AECO063 ([7]; ATCC25922 bearing an acrAB mutation)
1 | O=C(CNC1CC1)NC[C@H](NC(=O)c1ccc(/C=C/C#Cc2ccc(CO)cc2)cc1)C(=O)NO [Example 113-11] | 16 to 64 µg/mL (≈ 33.6 to 134 µM) | 2 to 16 µg/mL (≈ 4.2 to 33.6 µM) | > 64 µg/mL | < 2 µg/mL | 16 to 64 µg/mL (≈ 33.6 to 134 µM) | < 2 µg/mL | < 2 µg/mL | A (MIC's of 2.0 μg/mL or less = A) |  |  |  |  |  |  | 
2 | C[C@@H](N)[C@H](NC(=O)c1ccc(C#Cc2ccncc2)cc1)C(=O)NO [Example 133-8] | 16 to 64 µg/mL (≈ 47.3 to 189 µM) | 2 to 16 µg/mL (≈ 5.91 to 47.3 µM) | > 64 µg/mL | 16 to 64 µg/mL (≈ 47.3 to 189 µM) | 16 to 64 µg/mL (≈ 47.3 to 189 µM) | < 2 µg/mL | 2 to 16 µg/mL (≈ 5.91 to 47.3 µM) | A (MIC's of 2.0 μg/mL or less = A) |  |  |  |  |  |  | 
3 | C[C@@H](N)[C@H](NC(=O)c1ccc(C#CC#Cc2ccc(CN3CCOCC3)cc2)cc1)C(=O)NO [Example 86-2] | < 2 µg/mL | 2 to 16 µg/mL (≈ 4.34 to 34.7 µM) | 16 to 64 µg/mL (≈ 34.7 to 139 µM) | < 2 µg/mL | 2 to 16 µg/mL (≈ 4.34 to 34.7 µM) | < 2 µg/mL | < 2 µg/mL | A (MIC's of 2.0 μg/mL or less = A) |  |  |  |  |  |  | 
4 | C[C@@H](N)[C@H](NC(=O)c1ccc(C#CC#CC2CCCC2)cc1)C(=O)NO [Example 91-3] | 2 to 16 µg/mL (≈ 5.66 to 45.3 µM) | < 2 µg/mL | 2 to 16 µg/mL (≈ 5.66 to 45.3 µM) | < 2 µg/mL | 2 to 16 µg/mL (≈ 5.66 to 45.3 µM) | < 2 µg/mL | < 2 µg/mL | A (MIC's of 2.0 μg/mL or less = A) |  |  |  |  |  |  | 
5 | C[C@@H](N)[C@H](NC(=O)c1ccc(C#Cc2ccc(CN)cc2)cc1)C(=O)NO [Example 131-1, N-((1S,2R)-2-Amino-1-hydroxycarbamoyl-propyl)-4-(4-aminomethyl-phenylethynyl)-benzamide] | > 64 µg/mL | 2 to 16 µg/mL (≈ 5.46 to 43.7 µM) | > 64 µg/mL | 16 to 64 µg/mL (≈ 43.7 to 175 µM) | > 64 µg/mL | < 2 µg/mL | 16 to 64 µg/mL (≈ 43.7 to 175 µM) | A (MIC's of 2.0 μg/mL or less = A) |  |  |  |  |  |  | 
6 | CC(C)(O)[C@H](NC(=O)c1ccc(C#C/C=C/c2ccc(CO)cc2)cc1)C(=O)NO [Example 101-5] | 2 to 16 µg/mL (≈ 4.9 to 39.2 µM) | < 2 µg/mL | 16 to 64 µg/mL (≈ 39.2 to 157 µM) | < 2 µg/mL | < 2 µg/mL | < 2 µg/mL | < 2 µg/mL | A (MIC's of 2.0 μg/mL or less = A) |  |  |  |  |  |  | 
7 | C[C@H](NCC(=O)NC[C@H](NC(=O)c1ccc(C#C/C=C/c2ccccc2)cc1)C(=O)NO)c1ccccc1 [Example 105-2, N—{(S)-1-Hydroxycarbamoyl-2-[2-((S)-1-phenyl-ethylamino)-acetylamino]-ethyl}-4-((E)-4-phenyl-but-3-en-1-ynyl)-benzamide] | < 2 µg/mL | 2 to 16 µg/mL (≈ 3.92 to 31.3 µM) | 16 to 64 µg/mL (≈ 31.3 to 125 µM) | < 2 µg/mL | 16 to 64 µg/mL (≈ 31.3 to 125 µM) | < 2 µg/mL | < 2 µg/mL | A (MIC's of 2.0 μg/mL or less = A) |  |  |  |  |  |  | 
8 | O=C(N[C@H](C(=O)NO)c1ccccc1)c1ccc(C#Cc2ccc(CN3CCOCC3)cc2)cc1 [Example 66-5, N—((S)-hydroxycarbamoyl-phenyl-methyl)-4-(4-morpholin-4-ylmethyl-phenylethynyl)-benzamide] | 2 to 16 µg/mL (≈ 4.26 to 34.1 µM) | 2 to 16 µg/mL (≈ 4.26 to 34.1 µM) | > 64 µg/mL | < 2 µg/mL | 2 to 16 µg/mL (≈ 4.26 to 34.1 µM) | < 2 µg/mL | < 2 µg/mL | A (MIC's of 2.0 μg/mL or less = A) |  |  |  |  |  |  | 
9 | O=C(N[C@H](C(=O)NO)C1CCCC1)c1ccc(C#Cc2ccc(CN3CCOCC3)cc2)cc1 [Example 66-6] | 2 to 16 µg/mL (≈ 4.33 to 34.7 µM) | 16 to 64 µg/mL (≈ 34.7 to 139 µM) | > 64 µg/mL | < 2 µg/mL | 16 to 64 µg/mL (≈ 34.7 to 139 µM) | < 2 µg/mL | < 2 µg/mL | A (MIC's of 2.0 μg/mL or less = A) |  |  |  |  |  |  | 
10 | CC(=O)NC[C@H](NC(=O)c1ccc(C#C/C=C/c2ccc(CN3CCOCC3)cc2)cc1)C(=O)NO [Example 98-3, N—((S)-2-acetylamino-1-hydroxycarbamoyl-ethyl)-4-[(E)-4-(4-morpholin-4-ylmethyl-phenyl)-but-3-en-1-ynyl]-benzamide] | < 2 µg/mL | 2 to 16 µg/mL (≈ 4.08 to 32.6 µM) | > 64 µg/mL | < 2 µg/mL | 16 to 64 µg/mL (≈ 32.6 to 130 µM) | < 2 µg/mL | < 2 µg/mL | A (MIC's of 2.0 μg/mL or less = A) |  |  |  |  |  |  | 
11 | COC1CCN(Cc2ccc(C#Cc3ccc(C(=O)N[C@H](C(=O)NO)[C@@H](C)N)cc3)cc2)CC1 [Example 115-8] | 2 to 16 µg/mL (≈ 4.31 to 34.4 µM) | < 2 µg/mL | > 64 µg/mL | < 2 µg/mL | 2 to 16 µg/mL (≈ 4.31 to 34.4 µM) | < 2 µg/mL | < 2 µg/mL | A (MIC's of 2.0 μg/mL or less = A) |  |  |  |  |  |  | 
12 | C[C@@H](N)[C@H](NC(=O)c1ccc(C#Cc2cncnc2)cc1)C(=O)NO [Example 133-7] | 2 to 16 µg/mL (≈ 5.89 to 47.1 µM) | < 2 µg/mL | 2 to 16 µg/mL (≈ 5.89 to 47.1 µM) | < 2 µg/mL | < 2 µg/mL | < 2 µg/mL | < 2 µg/mL | A (MIC's of 2.0 μg/mL or less = A) |  |  |  |  |  |  | 
13 | C[C@@H](N)[C@H](NC(=O)c1ccc(C#Cc2ccc(CN3CCC(F)(F)C3)cc2)cc1)C(=O)NO [Example 118-3] | 2 to 16 µg/mL (≈ 4.38 to 35 µM) | 2 to 16 µg/mL (≈ 4.38 to 35 µM) | 16 to 64 µg/mL (≈ 35 to 140 µM) | < 2 µg/mL | 2 to 16 µg/mL (≈ 4.38 to 35 µM) | < 2 µg/mL | < 2 µg/mL | A (MIC's of 2.0 μg/mL or less = A) |  |  |  |  |  |  | 
14 | N-[1-((S)-Hydroxycarbamoyl)-2-methylamino-ethyl]-4-[(E)-4-(4-morpholin-4-ylmethyl-phenyl)-but-1-en-3-ynyl]-benzamide [Example 111-4] |  |  |  |  |  |  |  | A (MIC's of 2.0 μg/mL or less = A) | C (MIC's of greater than 16.0 μg/mL to 64.0 μg/mL = C) | B (MIC's of greater than 2.0 μg/mL to 16.0 μg/mL = B) | D (MIC's of greater than 64.0 μg/mL = D) | A (MIC's of 2.0 μg/mL or less = A) | C (MIC's of greater than 16.0 μg/mL to 64.0 μg/mL = C) | A (MIC's of 2.0 μg/mL or less = A) | A (MIC's of 2.0 μg/mL or less = A)
